Reference: BigSolDB 2.1

COc1cc2nc(Cl)nc(N)c2cc1OC
solubility (mole fraction)
Details	273.15 K	278.15 K	283.15 K	288.15 K	293.15 K	298.15 K	303.15 K	308.15 K	313.15 K
in 1,4-dioxane	–	–	–	0.000108	0.000129	0.000154	0.000183	0.000216	0.000253
in DMF	0.00286	0.00336	0.00405	0.00495	0.00586	0.00687	0.00817	0.00979	0.0116
in NMP	0.00572	0.00648	0.00746	0.00838	0.00932	0.0103	0.0113	0.0124	0.0137
in cyclohexanone	0.00109	0.0013	0.00151	0.00177	0.00206	0.00241	0.0028	0.00324	0.00385
in ethanol	0.000169	0.000206	0.000246	0.0003	0.000359	0.000423	0.000497	0.000585	0.000693
in ethyl acetate	0.000278	0.000322	0.000375	0.000443	0.000522	0.000618	0.000725	0.000853	0.00101
in isobutanol	0.000232	0.000272	0.000325	0.00038	0.000443	0.000514	0.000601	0.000706	0.000841
in isopropanol	0.000142	0.000173	0.000209	0.000257	0.000306	0.000362	0.000434	0.000518	0.000622
in methanol	0.000109	0.000139	0.000171	0.00021	0.000255	0.00031	0.000378	0.000458	0.000544
in n-butanol	0.000252	0.000294	0.000345	0.000402	0.000467	0.000548	0.000648	0.000763	0.000929
in n-propanol	0.000209	0.000245	0.00029	0.000343	0.000403	0.000471	0.000552	0.000657	0.000769
in toluene	2e-06	2.7e-06	3.7e-06	5.1e-06	6.9e-06	9.2e-06	1.26e-05	1.66e-05	2.17e-05
